Experimental data: publication PMC6478789, “A chemical toolbox for the study of bromodomains and epigenetic signaling” (Nature Communications, 2019)
Residue numbers refer to the chain shown, from its start. Where two headings read alike, the source gives them in different places. Each block holds one compound with its values, some of them ahead of it.

Legend:
Assay in all cases: BROMOscan ligand-binding assay
[1] = target: SMARCA2 (Homo sapiens, UniProt P51531)
Description: (§1) BROMOscan is a binding assay based on the well-known KINOMEscan technology. This assay measures the binding of a DNA-tagged bromodomain to an immobilized BRD ligand. If an inhibitor is present, it will compete with the bromodomain binding to the immobilized ligand, resulting in reduction of a quantitative PCR (qPCR) signal in a dose-dependent manner.

[2] = target: BRD8(1) (Homo sapiens, UniProt Q9H0E9)
Sequence of BRD8(1) (Q9H0E9 706-811 limits assumed): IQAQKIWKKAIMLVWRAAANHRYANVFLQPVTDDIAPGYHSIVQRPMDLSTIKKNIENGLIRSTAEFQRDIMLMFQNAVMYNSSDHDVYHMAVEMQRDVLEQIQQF
Description: as §1

[3] = target: BRD2(2) (Homo sapiens, UniProt P25440)
Sequence of BRD2(2) (P25440 344-453 limits assumed): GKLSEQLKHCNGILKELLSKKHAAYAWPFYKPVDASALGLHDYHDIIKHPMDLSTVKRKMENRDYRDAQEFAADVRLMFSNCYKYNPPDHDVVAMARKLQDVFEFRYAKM
Description: as §1

[4] = target: PBRM1(2) (Homo sapiens, UniProt Q86U86)
Sequence of PBRM1(2) (Q86U86 177-287 limits assumed): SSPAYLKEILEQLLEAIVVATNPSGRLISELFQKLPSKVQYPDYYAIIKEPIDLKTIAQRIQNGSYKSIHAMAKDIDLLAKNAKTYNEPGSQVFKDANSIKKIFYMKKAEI
Description: as §1

[5] = target: BRDT(2) (Homo sapiens, UniProt Q58F21)
Description: as §1

[6] = target: BRDT(1) (Homo sapiens, UniProt Q58F21)
Description: as §1

[7] = target: SMARCA4 (Homo sapiens, UniProt P51532)
Sequence of SMARCA4 (P51532 1453-1564 limits assumed): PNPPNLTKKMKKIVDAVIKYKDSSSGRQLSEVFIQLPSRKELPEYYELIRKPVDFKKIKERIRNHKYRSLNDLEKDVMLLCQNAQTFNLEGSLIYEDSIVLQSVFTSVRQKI
Description: as §1

[8] = target: T1, PCAF (Homo sapiens, UniProt Q92831); conditions: PCAF
T1 sequence (Q92831 723-827 limits assumed): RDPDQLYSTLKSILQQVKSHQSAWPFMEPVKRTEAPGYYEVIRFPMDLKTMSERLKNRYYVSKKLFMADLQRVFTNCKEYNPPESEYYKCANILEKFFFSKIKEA
Description: as §1

[9] = target: T2, BRD7 (Homo sapiens, UniProt Q9NPI1)
T2 sequence (Q9NPI1 131-235 limits assumed): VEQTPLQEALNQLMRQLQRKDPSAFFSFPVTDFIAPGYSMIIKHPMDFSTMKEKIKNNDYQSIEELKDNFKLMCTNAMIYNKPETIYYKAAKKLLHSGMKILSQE
Description: as §1

[10] = target: BRD2(1) (Homo sapiens, UniProt P25440)
Sequence of BRD2(1) (P25440 74-180 limits assumed): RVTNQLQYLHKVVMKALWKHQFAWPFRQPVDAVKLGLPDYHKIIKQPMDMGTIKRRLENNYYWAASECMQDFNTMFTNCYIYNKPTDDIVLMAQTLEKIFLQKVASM
Description: as §1

[11] = target: T3, TAF1L(2) (Homo sapiens, UniProt Q8IZX4)
T3 sequence (Q8IZX4 1517-1626 limits assumed): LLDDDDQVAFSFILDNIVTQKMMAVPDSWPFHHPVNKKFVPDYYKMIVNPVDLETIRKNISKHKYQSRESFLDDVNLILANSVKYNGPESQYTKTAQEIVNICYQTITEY
Description: as §1

[12] = target: T4, BAZ2B (Homo sapiens, UniProt Q9UIF8)
T4 sequence (Q9UIF8 2060-2164 limits assumed): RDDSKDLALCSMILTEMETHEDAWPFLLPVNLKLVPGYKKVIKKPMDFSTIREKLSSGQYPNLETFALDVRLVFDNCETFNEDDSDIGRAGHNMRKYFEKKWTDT
Description: as §1

[13] = target: BRD3(1,2) (Homo sapiens, UniProt Q15059)
Sequence of BRD3(1,2) (Q15059 24-416 limits assumed): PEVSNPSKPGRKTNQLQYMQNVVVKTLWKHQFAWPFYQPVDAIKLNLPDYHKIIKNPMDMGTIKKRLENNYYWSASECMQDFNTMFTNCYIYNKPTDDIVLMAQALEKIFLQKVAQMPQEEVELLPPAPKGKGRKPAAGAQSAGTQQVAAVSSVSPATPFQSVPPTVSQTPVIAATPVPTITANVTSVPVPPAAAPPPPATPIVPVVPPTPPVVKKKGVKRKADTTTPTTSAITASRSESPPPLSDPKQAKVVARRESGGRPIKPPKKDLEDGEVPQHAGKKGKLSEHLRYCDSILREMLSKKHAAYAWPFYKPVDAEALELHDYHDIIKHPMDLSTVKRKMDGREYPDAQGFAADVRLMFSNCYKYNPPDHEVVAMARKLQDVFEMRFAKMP
Description: as §1

[14] = target: BRD8(2) (Homo sapiens, UniProt Q9H0E9)
Sequence of BRD8(2) (Q9H0E9 1099-1207 limits assumed): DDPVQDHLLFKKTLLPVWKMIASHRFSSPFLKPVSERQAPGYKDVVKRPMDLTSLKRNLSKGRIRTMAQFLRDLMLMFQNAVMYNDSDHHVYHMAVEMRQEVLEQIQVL
Description: as §1

[15] = target: T5, BAZ2A (Homo sapiens, UniProt Q9UIF9)
T5 sequence (Q9UIF9 1793-1897 limits assumed): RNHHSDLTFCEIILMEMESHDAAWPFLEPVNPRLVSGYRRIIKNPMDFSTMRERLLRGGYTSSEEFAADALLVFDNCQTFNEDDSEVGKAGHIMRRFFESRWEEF
Description: as §1

[16] = target: T6, TAF1(2) (Homo sapiens, UniProt P21675)
T6 sequence (P21675 1519-1628 limits assumed): T3 sequence (Q8IZX4 1517-1626 limits assumed) with M46V, V51M, I102V, I107L
Description: as §1

[17] = target: T7, TRIM33(PHD,BRD) (Homo sapiens, UniProt Q9UPN9)
T7 sequence (Q9UPN9 882-1087 limits assumed): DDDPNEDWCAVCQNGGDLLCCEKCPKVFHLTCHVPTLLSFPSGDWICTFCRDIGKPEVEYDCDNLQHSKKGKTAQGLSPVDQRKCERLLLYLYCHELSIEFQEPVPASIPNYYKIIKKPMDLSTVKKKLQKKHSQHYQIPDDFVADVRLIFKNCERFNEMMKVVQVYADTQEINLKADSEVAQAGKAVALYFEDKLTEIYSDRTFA
Description: as §1

[18] = target: T8, TRIM24(PHD,BRD) (Homo sapiens, UniProt O15164); conditions: TRIM24(PHD,Bromo.)
T8 sequence (O15164 824-1006 limits assumed): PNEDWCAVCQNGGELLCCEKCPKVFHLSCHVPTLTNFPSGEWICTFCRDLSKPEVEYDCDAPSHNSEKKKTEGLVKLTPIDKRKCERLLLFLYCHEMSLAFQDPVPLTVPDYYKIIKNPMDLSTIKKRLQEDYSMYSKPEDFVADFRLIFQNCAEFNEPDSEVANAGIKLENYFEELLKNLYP
Description: as §1

[19] = target: BRD4(1) (Homo sapiens, UniProt O60885)
Description: as §1

[20] = target: BRD4(2) (Homo sapiens, UniProt O60885)
Description: as §1

[21] = target: BRD4(1,2) (Homo sapiens, UniProt O60885)
Description: as §1

[22] = target: T9, BRPF1 (Homo sapiens, UniProt P55201); conditions: BRPF1
T9 sequence (P55201 628-732 limits assumed): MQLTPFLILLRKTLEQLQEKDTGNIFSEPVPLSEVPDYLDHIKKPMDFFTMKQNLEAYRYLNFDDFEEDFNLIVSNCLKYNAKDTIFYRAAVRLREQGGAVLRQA
Description: as §1

[23] = read-out: KD (BROMOscan), sheet prints no unit (nM)
[24] = KD (BROMOscan), sheet prints no unit (nM)

Sequence of SMARCA2 (P51531 1-1572 isoform P51531-2): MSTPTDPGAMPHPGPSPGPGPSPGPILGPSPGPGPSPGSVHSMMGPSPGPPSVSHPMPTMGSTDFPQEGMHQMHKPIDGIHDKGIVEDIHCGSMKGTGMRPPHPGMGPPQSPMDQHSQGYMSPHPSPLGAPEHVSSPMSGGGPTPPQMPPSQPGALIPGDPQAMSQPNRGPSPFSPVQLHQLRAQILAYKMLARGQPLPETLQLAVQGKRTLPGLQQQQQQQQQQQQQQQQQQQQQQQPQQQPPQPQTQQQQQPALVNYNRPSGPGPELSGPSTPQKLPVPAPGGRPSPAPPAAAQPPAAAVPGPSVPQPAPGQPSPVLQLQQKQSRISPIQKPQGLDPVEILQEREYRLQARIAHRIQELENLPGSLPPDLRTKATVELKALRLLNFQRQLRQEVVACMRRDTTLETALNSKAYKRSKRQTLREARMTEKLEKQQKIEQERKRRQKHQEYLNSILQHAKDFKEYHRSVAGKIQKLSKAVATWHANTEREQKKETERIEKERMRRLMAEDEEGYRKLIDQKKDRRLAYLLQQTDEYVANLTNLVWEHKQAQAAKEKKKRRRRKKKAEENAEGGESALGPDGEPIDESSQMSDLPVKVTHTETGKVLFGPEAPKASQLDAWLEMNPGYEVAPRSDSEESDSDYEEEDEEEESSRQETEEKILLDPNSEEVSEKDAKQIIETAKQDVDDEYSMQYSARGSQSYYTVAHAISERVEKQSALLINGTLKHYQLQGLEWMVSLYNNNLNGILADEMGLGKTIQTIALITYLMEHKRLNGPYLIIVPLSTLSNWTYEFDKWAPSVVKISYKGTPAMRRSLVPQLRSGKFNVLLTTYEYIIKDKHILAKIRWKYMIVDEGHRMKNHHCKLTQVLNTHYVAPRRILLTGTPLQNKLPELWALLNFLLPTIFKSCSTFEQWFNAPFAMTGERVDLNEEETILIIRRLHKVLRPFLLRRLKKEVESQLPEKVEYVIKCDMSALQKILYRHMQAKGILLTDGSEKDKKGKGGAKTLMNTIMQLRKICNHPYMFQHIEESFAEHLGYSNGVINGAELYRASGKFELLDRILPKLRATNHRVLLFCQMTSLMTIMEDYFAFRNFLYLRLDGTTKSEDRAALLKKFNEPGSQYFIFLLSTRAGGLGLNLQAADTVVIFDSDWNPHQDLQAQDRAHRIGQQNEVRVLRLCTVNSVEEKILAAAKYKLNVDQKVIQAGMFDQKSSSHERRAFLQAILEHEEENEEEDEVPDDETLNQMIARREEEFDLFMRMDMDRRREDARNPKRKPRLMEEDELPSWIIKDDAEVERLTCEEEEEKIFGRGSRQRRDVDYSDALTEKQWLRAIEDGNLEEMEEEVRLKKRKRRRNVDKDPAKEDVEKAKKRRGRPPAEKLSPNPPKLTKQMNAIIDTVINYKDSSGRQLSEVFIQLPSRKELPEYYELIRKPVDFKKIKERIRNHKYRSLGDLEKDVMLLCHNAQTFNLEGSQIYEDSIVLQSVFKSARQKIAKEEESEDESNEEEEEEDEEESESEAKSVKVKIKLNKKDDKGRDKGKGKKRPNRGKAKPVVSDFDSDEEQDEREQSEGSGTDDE

Kd ([1]; SMARCA2): > 50000 nM
Kd [1, 23]: > 30000 nM
Kd ([2]; BRD8(1)): > 50000 nM
Kd [2, 23]: > 30000 nM
Kd ([3]; BRD2(2)): 10 µM
Kd ([4]; PBRM1(2)): > 50000 nM
Kd [4, 23]: > 30000 nM
Kd ([5]; BRDT(2)): 22 µM
Kd ([6]; BRDT(1)): 3.5 µM
Kd ([7]; SMARCA4): 16000 nM
Kd [8]: 12 µM
Kd ([9]; BRD7): 1 µM
Kd ([10]; BRD2(1)): 7.4 µM
Kd ([11]; TAF1L(2)): 5.3 µM
Kd ([12]; BAZ2B): 2.5 µM
Kd ([13]; BRD3(1,2)): 4.9 µM
Kd ([14]; BRD8(2)): > 50000 nM
Kd [14, 23]: > 30000 nM
Kd ([15]; BAZ2A): 13 µM
Kd ([16]; TAF1(2)): 4.7 µM
Kd ([17]; TRIM33(PHD,Bromo.)): 40000 nM
Kd [18]: 4.5 µM
Compound: COc1cc2c(cc1NS(=O)(=O)c1ccc(Br)cc1C)n(C)c(=O)n2C [OF-1]

Kd [1, 24]: > 30000 nM
Kd ([1]; KD, SMARCA2): > 100000 nM
Kd [19]: 2.9 µM
Kd [2, 24]: > 30000 nM
Kd ([2]; KD, BROMOscan Gene Symbol BRD8(1)): > 100000 nM
Kd [3]: 26 µM
Kd [4, 24]: > 30000 nM
Kd ([4]; KD, PBRM1(2)): > 100000 nM
Kd ([5]; KD, BROMOscan Gene Symbol BRDT(2)): 49 µM
Kd ([6]; KD, BROMOscan Gene Symbol BRDT(1)): 4.2 µM
Kd [7, 24]: > 30000 nM
Kd ([7]; KD, SMARCA4): > 100000 nM
Kd [20]: 16 µM
Kd ([8]; KD): 77 µM
Kd ([9]; KD, BROMOscan Gene Symbol BRD7): 7.6 µM
Kd [10]: 5.7 µM
Kd [11]: 52 µM
Kd [21]: 11 µM
Kd ([12]; KD, BROMOscan Gene Symbol BAZ2B): 28 µM
Kd ([13]; KD, BROMOscan Gene Symbol BRD3(1,2)): 6.3 µM
Kd [14, 24]: > 30000 nM
Kd ([14]; KD, BROMOscan Gene Symbol BRD8(2)): > 100000 nM
Kd ([22]; KD): 20 µM
Kd [15]: 70 µM
Kd [16]: 45 µM
Kd [17, 24]: > 30000 nM
Kd ([17]; KD, TRIM33(PHD,Bromo.)): > 100000 nM
Kd ([18]; KD): 14 µM
Compound: CCC(=O)N1CCOc2c(cc(-c3ccc(OC)c(OC)c3)cc2OCC2CCCN(C)C2)C1 (stereo not drawn) [I-CBP112]

Kd ([1]; BROMOscan, SMARCA2): 49 nM
Kd ([19]; BROMOscan, BRD4(1)): 27 µM
Kd ([2]; BROMOscan, BRD8(1)): > 30000 nM
Kd ([3]; BROMOscan, BRD2(2)): > 30 µM
Kd ([4]; BROMOscan, PBRM1(2)): 170 nM
Kd ([5]; BROMOscan, BRDT(2)): > 30 µM
Kd ([6]; BROMOscan, BRDT(1)): 24 µM
Kd ([7]; BROMOscan, SMARCA4): 46 nM
Kd ([20]; BROMOscan, BRD4(2)): > 30 µM
Kd ([8]; BROMOscan): > 30 µM
Kd ([9]; BROMOscan, BRD7): > 30 µM
Kd ([10]; BROMOscan, BRD2(1)): > 30 µM
Kd ([11]; BROMOscan, TAF1L(2)): > 30 µM
Kd ([21]; BROMOscan, BRD4(1,2)): > 30 µM
Kd ([12]; BROMOscan, BAZ2B): > 30 µM
Kd ([13]; BROMOscan, BRD3(1,2)): > 30 µM
Kd ([14]; BROMOscan, BRD8(2)): > 30000 nM
Kd ([22]; BROMOscan): > 30 µM
Kd ([15]; BROMOscan, BAZ2A): > 30 µM
Kd ([16]; BROMOscan, TAF1(2)): > 30 µM
Kd ([17]; BROMOscan, TRIM33(PHD,Bromo.)): > 30000 nM
Kd ([18]; BROMOscan): > 30 µM
Compound: O=C(C=CN1[C@H]2CC[C@@H]1c1ncnc(NC3CC3)c1C2)c1ccccc1O [PFI-3 D1]
